Experimental data taken from PMC8807600, “Catalytic trajectory of a dimeric nonribosomal peptide synthetase subunit with an inserted epimerase domain” (Nature Communications, 2022).

Legend:
PchD = PchD (Pseudomonas aeruginosa, UniProt Q9HWG3); conditions: 10 uM PchE, 10 uM PchD, 10 uM SrfD, 5 mM cysteine, 1 mM salicylate, 5 mM ATP, 10 mM MgCl2, 50 mM Tris pH 7.9, 25 C, 2.5 h; PchD loads salicylate onto ArCP of PchE (coupled read-out)
[1] = target: the molecule itself; assay: cryo-EM structure; PchE reacted with PchD (0.5:1), salicylate, cysteine, ATP, MgCl2, then purified on Superose 6 Increase in 50 mM Tricine pH 8.0, 1 mM MgCl2; ~4 mg/mL with 1 mM cysteine and ATP; three conformations at 2.97, 3.78 and 3.47 Å

Chain of PchD (Q9HWG3 whole entry): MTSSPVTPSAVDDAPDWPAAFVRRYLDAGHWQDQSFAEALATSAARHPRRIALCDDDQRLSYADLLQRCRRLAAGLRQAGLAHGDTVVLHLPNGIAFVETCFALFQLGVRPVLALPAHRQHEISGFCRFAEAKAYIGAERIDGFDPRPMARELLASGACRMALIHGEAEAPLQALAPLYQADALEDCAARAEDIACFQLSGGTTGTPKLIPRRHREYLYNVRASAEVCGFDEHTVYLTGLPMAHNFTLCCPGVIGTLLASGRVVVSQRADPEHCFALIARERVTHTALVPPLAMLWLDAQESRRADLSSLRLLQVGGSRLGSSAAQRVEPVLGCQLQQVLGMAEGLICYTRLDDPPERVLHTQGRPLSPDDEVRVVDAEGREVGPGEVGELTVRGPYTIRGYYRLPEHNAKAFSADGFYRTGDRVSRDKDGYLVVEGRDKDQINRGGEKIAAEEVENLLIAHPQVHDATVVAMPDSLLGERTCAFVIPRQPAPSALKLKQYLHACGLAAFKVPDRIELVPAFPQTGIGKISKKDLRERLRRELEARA

Molecule | in vitro reconstitution, HPLC and LC-MS of products (PchD) | stoichiometry N [1]
O=C(O)c1ccccc1O [salicylate] | PchD is responsible for loading salicylate onto the ArCP domain of PchE | 
PchE (dihydroaeruginoic acid synthetase, NRPS elongation module of the pyochelin pathway) (enzyme, phosphopantetheine (pPant) arms on the ArCP and PCP domains; salicyl-pPant or hydroxyphenylthiazolinyl-pPant seen in some conformations, also called Strep II-tagged PchE; source: E. coli BAP1, purified (Strep-Tactin resin, Superose 6 Increase size exclusion)) MDLPPDSRTALRDWLTEQLADLLGEPLADVRALADDDDLLGCGLDSIRLMYLQERLRARGSTLDFAQLAQRPCLGAWLDLLACADRLSAPATVALPTAQDRDQPFELSSVQQAYWLGRGAGEVLGNVSCHAFLEFRTRDVDPQRLAAAAECVRQRHPMLRARFLDGRQQILPTPPLSCFDLQDWRTLQVDEAERDWQALRDWRAHECLAVERGQVFLLGLVRMPGGEDRLWLSLDLLAADVESLRLLLAELGVAYLAPERLAEPPALHFADYLAHRAAQRAEAAARARDYWLERLPRLPDAPALPLACAPESIRQPRTRRLAFQLSAGESRRLERLAAQHGVTLSSVFGCAFALVLARWSESAEFLLNVPLFDRHADDPRIGEVIADFTTLLLLECRMQAGVSFAEAVKSFQRNLHGAIDHAAFPALEVLREARRQGQPRSAPVVFASNLGEEGFVPAAFRDAFGDLHDMLSQTPQVWLDHQLYRVGDGILLAWDSVVGLFPEGLPETMFEAYVGLLQRLCDSAWGQPADLPLPWAQQARRALLNGQPACATARTLHRDFFLRAAEAPDADALLYRDQRVTRGELAERALRIAGGLREAGVRPGDAVEVSLPRGPQQVAAVFGVLAAGACYVPLDIDQPPARRRLIEEAAGVCLAITEEDDPQALPPRLDVQRLLRGPALAAPVPLAPQASAYVIYTSGSTGVPKGVEVSHAAAINTIDALLDLLRVNASDRLLAVSALDFDLSVFDLFGGLGAGASLVLPAQEQARDAAAWAEAIQRHAVSLWNSAPALLEMALSLPASQADYRSLRAVLLSGDWVALDLPGRLRPRCAEGCRLHVLGGATEAGIWSNLQSVDTVPPHWRSIPYGRPLPGQAYRVVDTHGRDVPDLVVGELWIGGASLARGYRNDPELSARRFVHDAQGRWYRTGDRGRYWGDGTLEFLGRVDQQVKVRGQRIELGEVEAALCAQAGVESACAAVLGGGVASLGAVLVPRLAPRAEGSMDLPAAQPFAGLAEAEAVLTREILGALLEAPLELDDGLRRRWLDWLADSAASALPSLDEALRRLGWQAAGLTAMGNALRGLLAGEQAPAALLLDPWLAPQAVAARLPDGREALARLLEALPTPAAGERLRVAVLDTRAGLWLDQGMASLLRPGLELTLFERSRVLLDAAATRLPERIVVQALDDGLLPAEHLGRYDRVISFAALHAYEASREGLALAAALLRPQGRLLLVDLLCESPLALLGAALLDDRPLRLAELPSLLADLAAAGLAPRCLWRSERIALVEALAPGLGLDAAALQAGLEQRLPQAMRPERLWCLPSLPLNGNGKVDRRRLAESMTRALGECRHEPSAEEPLEAHEQALAECWEAVLKRPVRRREASFFSLGGDSLLATRLLAGIRERFGVRLGMADFYRQPTLAGLARHLQVQTVEIEETQLEEGVL |  | 2
